US9295671B2, “Benzenesulfonamide derivatives of quinoxaline, pharmaceutical compositions thereof, and their use in methods for treating cancer” (NEUPHARMA, INC., priority 2011, dated 2016)

What was measured:
BRAF [1] = target: T1, BRAF (Homo sapiens, UniProt P15056); experiment: Z′-LYTE kinase assay, BRAF (Invitrogen); assay type: biochemical; conditions: Z′-LYTE method
T1 construct: purchased Invitrogen
Description: (§1) Inhibitory activities of compounds against BRAF or BRAF V600E were measured by Invitrogen using Z′-LYTE® Method as briefly described in the following.
(§2) 4× Test compounds are dissolved in 1% DMSO. […] ATP solutions are diluted to a 4×ATP working concentration in Kinase Buffer (50 mM HEPES pH 7.5, 0.01% BRIJ-35, 10 mM MgCl2, 1 mM EGTA).
(§3) Reaction starts by 30-second shaking of mixture consisting of 2.5 μL4× test compound, […] and 2.5 μL 4×ATP Solution on Bar-coded Corning, low volume NBS, black 384-well plate (Corning Cat. #3676). Then the mixture is incubated for 60-minute at room temperature for the kinase reaction, followed by addition of 5 μL of a 1:1024 dilution of development reagent A and 30-second plate shake. The mixture is then incubated for another 60-minute at room temperature for development reaction. Finally fluorescence is read by plate reader.

BRAF V600E [2] = target: T2, BRAF V600E (Homo sapiens, UniProt P15056, V600E); experiment: Z′-LYTE kinase assay, BRAF V600E (Invitrogen); assay type: biochemical; conditions: Z′-LYTE method
T2 construct: purchased Invitrogen
Description: as §1, §2, §3

BRAF [3] = target: T1, BRAF; experiment: LanthaScreen kinase assay, BRAF; assay type: biochemical; conditions: ATP 1 μM
Description: (§4) The inhibitory activities of compounds against BRAF or BRAF V600E protein were measured using Invitrogne's LanthaScreen™ kinase assay which is based on fluorescein-labeled MAP2K1 as a substrate. The assay procedure is described as follows.
(§5) The scale utilized in Table 3 is as follows: ++++ less than 50 nM; +++ between 50 and 100 nM; ++ between 100 nM and 1 μM; and + greater than 1 μM.

BRAF V600E [4] = target: T2, BRAF V600E; experiment: LanthaScreen kinase assay, BRAF V600E; assay type: biochemical; conditions: ATP 10 μM
Description: as §4, §5

[5] = test system: A375 (human melanoma cell, BRAF V600E Mutant); experiment: Inhibition of cancer cell growth, MTT or MTS assay, A375; assay type: cell-based; conditions: A-375, 72 h, highest concentration 10 μM (Table 5)
Description: (§6) A375 (human melanoma cell, BRAF V600E Mutant), CHL-1 (human melanoma cell, BRAF wild type), SK-MEL-28 (human melanoma cell, BRAF V600E Mutant) and SK-MEL-31(human melanoma cell, Braf WT Mutant) were purchased from ATCC (American Type Culture Collection, Manassas, Va.). All cell lines were maintained in RPMI 1640 (Hyclone) or DMEM (Hyclone) supplemented with 10% fetal bovine serum (FBS, Hyclone), glutamine (2 mM, Hyclone), and antibiotics (penicillin 100 U/mL and streptomycin 50 μg/mL) at 37° C. in a humidified atmosphere of 5% CO2 in air.
(§7) To test IC50 of inhibition of individual compounds against each cell line, A375, SK-MEL-28and SK-MEL-31 cells were first plated in 96-well plates at densities of 3000 cells/well, and CHL-1 2500 cells/well. Cells were then incubated to allow cells to adhere and grow for 24 h. Cells were then treated with a series of concentrations of compounds for 72 h. The highest concentration of compounds was 10 μM for A375 and SK-MEL-28 cells and 100 μM for CHL-1 and SK-MEL-31 cells. Cells were then removed from the incubator and medium was removed by inverting and tapping the plates. 100 μL of MTT (0.5 mg/ml) or 10 μL or MTS was added to each well followed by an incubated at 37° C. for 4 h. Then MTT was removed and 200 μL of DMSO was added to each well, followed by reading the ODs at 570 nm after a 5 second shaking cycle in a 96-well spectrophotometer. For MTS method, MTS was not removed, and the incubated solutions were directly put in a 96-well spectrophotometer for the reading of the ODs at 492 nm.
(§8) IC50 was calculated by plotting the concentration of compound vs the percentage of inhibition in treated wells using GraphPad Prism 5. […] The scale utilized in Table 5 is as follows: +++ less than 500 nM; ++ between 500 nM and 1 μM; and + greater than 1 μM.

[6] = test system: SK-MEL-28 (human melanoma cell, BRAF V600E Mutant); experiment: Inhibition of cancer cell growth, MTT or MTS assay, SK-MEL-28; assay type: cell-based; conditions: 72 h, highest concentration 10 μM
Description: as §6, §7, §8

[7] = test system: CHL-1 (human melanoma cell, BRAF wild type); experiment: Inhibition of cancer cell growth, MTT or MTS assay, CHL-1; assay type: cell-based; conditions: 72 h, highest concentration 100 μM
Description: as §6, §7, §8

[8] = test system: SK-MEL-31 (human melanoma cell, Braf WT Mutant); experiment: Inhibition of cancer cell growth, MTT or MTS assay, SK-MEL-31; assay type: cell-based; conditions: 72 h, highest concentration 100 μM
Description: as §6, §7, §8

A375 tumor xenograft = experiment: Inhibition of tumor growth in A375 tumor xenograft model; assay type: in vivo, BALB/c female nude mice; conditions: nude mice, Compound 12.5 mg/kg b.i.d. × 20 i.g., Cisplatin 6 mg/kg q7d × 3 i.p.
Description: Cells were implanted in BALB/c female nude mice and grown as tumor xenografts. When tumors achieved 120-200 mm^3, mice were assigned into treatment and control groups using randomized block design based upon their tumor volumes. Each group contained 6 tumor-bearing mice. Tumors were measured twice weekly in two dimensions using a caliper, and the tumor volume was calculated from two-dimensional measurements using the equation V=0.5×a×b^2 where a and b are the long and short diameters of the tumor, respectively. Relative tumor volume (RTV) was defined as TVt/TVi, the ratio of the volume on a given day (TVt) and the volume at the start of treatment (TVi). Relative tumor growth rate (T/C) was defined as RTVT/RTVC, the ratio of relative tumor volume of treatment group (RTVT) and relative tumor volume of control group (RTVC) on a given day. Inhibition of tumor growth in a A375 tumor xenograft model is shown below in Table 6 for a compound of Table 1.

A549 cells = experiment: Inhibition of cancer cell growth, MTT assay, A549; assay type: cell-based; conditions: Homo sapiens, 72 h
Description: (§9) Inhibition of cell growth by compounds was measured using MTT assay (Mosmann, T., Journal of Immunological Methods, 1983, 65, 55-63). Tumor cell lines were purchased from ATCC (American Type Culture Collection, Manassas, Va.). All cell lines were maintained in RPMI 1640 (Hyclone) supplemented with 10% fetal bovine serum (FBS, Hyclone), glutamine (2 mM, Hyclone), and antibiotics (penicillin 100 U/mL and streptomycin 50 μg/mL) at 37° C. in a humidified atmosphere of 5% CO2 in air. Taxol (as a positive control, Sigma) and compounds were dissolved in DMSO (Sigma), and the final concentration of DMSO in the medium was 1%. Tumor cells were plated in 96-well plates at densities of about 4000 cells/well of a 96-well plate and allowed to adhere/grow for 24 h. They were then treated with various concentrations of drug for 72 h. 3-(4,5-Dimethylthiazol-2-yl)-2,5-diphenyltetrazolium bromide (MTT, Sigma) was used to determine the number of viable cells at the time of compound addition and the number of cells remaining after 72 h compound exposure. The number of cells remaining after 72 h was compared to the number of viable cells at the time of compound addition by measuring the absorbance at 570 nm, allowing for the calculation of growth inhibition.
(§10) All concentrations of compounds were tested in triplicate and controls were averaged over 4 wells. IC50 was calculated by plotting the concentration of compound vs the percentage of inhibition in treated wells using GraphPad Prism 5.
(§11) The scale utilized in Table 4 is as follows: +++ less than 500 nM; ++ between 500 nM and 1 μM; and + greater than 1 μM.

A375 cells = experiment: Inhibition of cancer cell growth, MTT assay, A375; assay type: cell-based; conditions: Homo sapiens, A-375, 72 h (Table 4)
Description: as §9, §10, §11

T1 sequence (P15056 whole entry): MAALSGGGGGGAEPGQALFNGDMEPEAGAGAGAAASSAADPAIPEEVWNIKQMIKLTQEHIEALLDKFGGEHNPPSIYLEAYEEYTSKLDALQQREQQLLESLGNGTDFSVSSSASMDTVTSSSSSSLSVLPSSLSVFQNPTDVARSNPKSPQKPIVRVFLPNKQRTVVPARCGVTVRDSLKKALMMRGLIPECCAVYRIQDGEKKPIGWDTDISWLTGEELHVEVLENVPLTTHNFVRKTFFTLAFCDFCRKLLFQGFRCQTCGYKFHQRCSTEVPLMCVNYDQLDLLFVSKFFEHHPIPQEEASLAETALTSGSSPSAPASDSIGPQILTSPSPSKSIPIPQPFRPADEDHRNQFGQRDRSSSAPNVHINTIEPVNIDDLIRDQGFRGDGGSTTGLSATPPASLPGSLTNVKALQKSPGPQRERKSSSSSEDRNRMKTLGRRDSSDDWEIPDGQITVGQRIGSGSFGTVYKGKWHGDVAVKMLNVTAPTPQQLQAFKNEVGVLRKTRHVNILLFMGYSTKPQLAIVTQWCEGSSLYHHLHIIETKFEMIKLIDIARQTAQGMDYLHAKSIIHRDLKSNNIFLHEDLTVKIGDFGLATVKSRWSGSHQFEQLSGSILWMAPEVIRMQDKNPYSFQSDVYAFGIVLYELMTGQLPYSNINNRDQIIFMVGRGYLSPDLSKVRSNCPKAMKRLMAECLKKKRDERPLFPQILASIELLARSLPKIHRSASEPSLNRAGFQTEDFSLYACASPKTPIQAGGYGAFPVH
T2 sequence (P15056 whole entry V600E): as the sequence (P15056 whole entry) above, with V600E counted along it

Compound	inhibition at 1 µM (BRAF [1])	inhibition at 1 µM (BRAF V600E [2])	IC50 (BRAF [3])	IC50 (BRAF V600E [4])	IC50 [5]	IC50 [6]	IC50 CHL-1 [7]	IC50 SK-MEL-31 [8]	Tumor Volume Post-treatment (A375 tumor xenograft)	Tumor Volume Pre-treatment (A375 tumor xenograft)	T/C (relative tumor growth rate, RTVT/RTVC) (A375 tumor xenograft; *p < 0.05, **p < 0.01)	IC50 (A549 cells)	IC50 (A375 cells)
CCCS(=O)(=O)Nc1cc(F)c(F)c(C(=O)c2ccc3ncc(N4CCOCC4)nc3c2)c1F [Compound C09, N-(2,4,5-trifluoro-3-(3-morpholinoquinoxaline-6-carbonyl)phenyl)propane-1-sulfonamide]	> 89%	> 89%	50 to 100 nM	< 50 nM	< 500 nM	< 500 nM	No inhibition	No inhibition					
CCCS(=O)(=O)Nc1ccc(F)c(C(=O)c2ccc3nccnc3c2)c1Cl [Compound C06, N-(2-chloro-4-fluoro-3-(quinoxaline-6-carbonyl)phenyl)propane-1-sulfonamide]	70 to 89%	> 89%	100 to 1000 nM	< 50 nM	< 500 nM		No inhibition						
N.N.[Cl][Pt][Cl] [Cisplatin]									647 mm^3	136 mm^3	44.4%*		
CCCS(=O)(=O)Nc1cc(F)c(F)c(C(=O)c2ccc3ncc(-c4ccc(Cl)cc4)nc3c2)c1F [Compound C12, N-(3-(3-(4-chlorophenyl)quinoxaline-6-carbonyl)-2,4,5-trifluorophenyl)propane-1-sulfonamide]	70 to 89%	> 89%			< 500 nM	500 to 1000 nM	No inhibition	No inhibition					
CCCS(=O)(=O)Nc1ccc(F)c(C(=O)c2ccc3ncc(OC)nc3c2)c1F [Compound C03, N-(2,4-difluoro-3-(3-methoxyquinoxaline-6-carbonyl)phenyl)propane-1-sulfonamide]	70 to 89%	> 89%										> 1000 nM	> 1000 nM
CCCS(=O)(=O)Nc1cc(F)c(F)c(C(=O)c2ccc3nccnc3c2)c1F [Compound C04, N-(2,4,5-trifluoro-3-(quinoxaline-6-carbonyl)phenyl)propane-1-sulfonamide]	> 89%	> 89%	50 to 100 nM	< 50 nM	< 500 nM	< 500 nM	No inhibition	No inhibition					
CCCS(=O)(=O)Nc1cc(F)c(F)c(C(=O)c2ccc3ncc(OC)nc3c2)c1F [Compound C10, N-(2,4,5-trifluoro-3-(3-methoxyquinoxaline-6-carbonyl)phenyl)propane-1-sulfonamide]	> 89%	70 to 89%										> 1000 nM	< 500 nM
CCCS(=O)(=O)Nc1cc(F)c(F)c(C(=O)c2ccc3ncc(Cl)nc3c2)c1F [Compound C11, N-(3-(3-chloroquinoxaline-6-carbonyl)-2,4,5-trifluorophenyl)propane-1-sulfonamide]	70 to 89%	> 89%										> 1000 nM	> 1000 nM
